# Experimental data reported in PubChem BioAssay AID192 (DTP/NCI, 2004).
# Several values for one entry are separate records, joined by “and”; a condition that tells them apart may be missing. Equal entries are not always repeated. Inconclusive results and toxic doses are left out.
# Tested on: BDF1 mice, B16 melanoma ip, median survival T/C
# Experiment: NCI In Vivo Anticancer Drug Screen. Data for tumor model B16 Melanoma (intraperitoneal) in B6D2F1 (BDF1) mice
# Settings: endpoint: median survival time, higher = longer survival
# Procedure, shortened: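 Read-out: survival or tumor size, given as treated/control ratio. Controls received vehicle only; animals bore transplantable tumors.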
structure (smiles),measurement,setting,value
Cc1cc(C)c(NC(=O)Nc2ccccc2C)c(C)c1,T/C,"dose: 25.0 mg/kg/injection, schedule: Q04DX003 (ip), vehicle: Klucel (hydroxypropylcellulose) (HPC)",102 % of control
same,T/C,"dose: 50.0 mg/kg/injection, schedule: Q04DX003 (ip), vehicle: Klucel (hydroxypropylcellulose) (HPC)",97 % of control
same,T/C,"dose: 100.0 mg/kg/injection, schedule: Q04DX003 (ip), vehicle: Klucel (hydroxypropylcellulose) (HPC)",90 % of control
C/C=C(\C)C(=O)O[C@@H]1c2cc3c(cc2-c2c(cc(OC)c(OC)c2OC)[C@@H]2C(=O)OC[C@@H]12)OCO3,T/C,"dose: 1.25 mg/kg/injection, schedule: Q01DX009 (ip), vehicle: Klucel (hydroxypropylcellulose) (HPC)",101 % of control
same,T/C,"dose: 2.5 mg/kg/injection, schedule: Q01DX009 (ip), vehicle: Klucel (hydroxypropylcellulose) (HPC)",107 % of control
same,T/C,"dose: 5.0 mg/kg/injection, schedule: Q01DX009 (ip), vehicle: Klucel (hydroxypropylcellulose) (HPC)",92 % of control
same,T/C,"dose: 10.0 mg/kg/injection, schedule: Q01DX009 (ip), vehicle: Klucel (hydroxypropylcellulose) (HPC)",96 % of control
CC1OC(=O)C(C(C)C)NC(=O)C(C(C)C)OC(=O)C(C(C)C)NC(=O)C(C)OC(=O)C(C(C)C)NC(=O)C(C(C)C)OC(=O)C(C(C)C)NC(=O)C(C)OC(=O)C(C(C)C)NC(=O)C(C(C)C)OC(=O)C(C(C)C)NC1=O (configuration not stated),T/C,"dose: 0.04 mg/kg/injection, schedule: Q01DX009 (ip), vehicle: saline with Tween-80",101 % of control
same,T/C,"dose: 0.08 mg/kg/injection, schedule: Q01DX009 (ip), vehicle: saline with Tween-80",106 % of control
same,T/C,"dose: 0.16 mg/kg/injection, schedule: Q01DX009 (ip), vehicle: saline with Tween-80",117 % of control
same,T/C,"dose: 0.2 mg/kg/injection, schedule: Q01DX009 (ip), vehicle: DMSO",117 % of control
same,T/C,"dose: 0.31 mg/kg/injection, schedule: Q01DX009 (ip), vehicle: saline with Tween-80",152 % of control
same,T/C,"dose: 0.4 mg/kg/injection, schedule: Q01DX009 (ip), vehicle: DMSO",176 % of control
same,T/C,"dose: 0.75 mg/kg/injection, schedule: Q01DX009 (ip), vehicle: Klucel (hydroxypropylcellulose) (HPC)",106 % of control
same,T/C,"dose: 0.75 mg/kg/injection, schedule: Q01DX009 (oral), vehicle: Klucel (hydroxypropylcellulose) (HPC)",101 % of control
same,T/C,"dose: 1.5 mg/kg/injection, schedule: Q01DX009 (ip), vehicle: Klucel (hydroxypropylcellulose) (HPC)",101 % of control
same,T/C,"dose: 1.5 mg/kg/injection, schedule: Q01DX009 (oral), vehicle: Klucel (hydroxypropylcellulose) (HPC)",104 % of control
same,T/C,"dose: 2.5 mg/kg/injection, schedule: Q01DX009 (ip), vehicle: saline with Tween-80",153 % of control
same,T/C,"dose: 3.0 mg/kg/injection, schedule: Q01DX009 (oral), vehicle: Klucel (hydroxypropylcellulose) (HPC)",105 % of control
same,T/C,"dose: 5.0 mg/kg/injection, schedule: Q01DX009 (ip), vehicle: saline with Tween-80",183 % of control
same,T/C,"dose: 5.0 mg/kg/injection, schedule: Q01DX009 (oral), vehicle: saline with Tween-80",105 % of control
same,T/C,"dose: 6.0 mg/kg/injection, schedule: Q01DX009 (ip), vehicle: saline with Tween-80",165 % of control
same,T/C,"dose: 6.0 mg/kg/injection, schedule: Q01DX009 (oral), vehicle: Klucel (hydroxypropylcellulose) (HPC)",107 % of control
same,T/C,"dose: 10.0 mg/kg/injection, schedule: Q01DX009 (ip), vehicle: saline with Tween-80",171 % of control
same,T/C,"dose: 10.0 mg/kg/injection, schedule: Q01DX009 (oral), vehicle: saline with Tween-80",116 % of control
same,T/C,"dose: 12.0 mg/kg/injection, schedule: Q01DX009 (oral), vehicle: Klucel (hydroxypropylcellulose) (HPC)",100 % of control
same,T/C,"dose: 20.0 mg/kg/injection, schedule: Q01DX009 (ip), vehicle: saline with Tween-80",94 % of control
same,T/C,"dose: 20.0 mg/kg/injection, schedule: Q01DX009 (oral), vehicle: saline with Tween-80",116 % of control
same,T/C,"dose: 24.0 mg/kg/injection, schedule: Q01DX009 (oral), vehicle: Klucel (hydroxypropylcellulose) (HPC)",94 % of control
same,T/C,"dose: 40.0 mg/kg/injection, schedule: Q01DX009 (oral), vehicle: saline with Tween-80",109 % of control
CCCC(=O)OCc1cc(=O)n(C)c2c3c4c(cc12)c(C)cc(=O)n4CO3,T/C,"dose: 3.12 mg/kg/injection, schedule: Q01DX009 (ip), vehicle: Klucel (hydroxypropylcellulose) (HPC)",106 % of control
same,T/C,"dose: 6.25 mg/kg/injection, schedule: Q01DX009 (ip), vehicle: Klucel (hydroxypropylcellulose) (HPC)",101 % of control and 110 % of control
same,T/C,"dose: 12.5 mg/kg/injection, schedule: Q01DX009 (ip), vehicle: Klucel (hydroxypropylcellulose) (HPC)",120 % of control
same,T/C,"dose: 50.0 mg/kg/injection, schedule: Q01DX009 (ip), vehicle: Klucel (hydroxypropylcellulose) (HPC)",153 % of control
Cn1c(Cl)nc2c(Cl)nc(Cl)nc21,T/C,"dose: 1.0 mg/kg/injection, schedule: Q01DX009 (ip), vehicle: saline",105 % of control
same,T/C,"dose: 2.0 mg/kg/injection, schedule: Q01DX009 (ip), vehicle: saline",100 % of control
same,T/C,"dose: 4.0 mg/kg/injection, schedule: Q01DX009 (ip), vehicle: saline",97 % of control
same,T/C,"dose: 8.0 mg/kg/injection, schedule: Q01DX009 (ip), vehicle: saline",95 % of control
same,T/C,"dose: 16.0 mg/kg/injection, schedule: Q01DX009 (ip), vehicle: saline",92 % of control
same,T/C,"dose: 32.0 mg/kg/injection, schedule: Q01DX009 (ip), vehicle: saline",92 % of control
COC(=O)CC(=O)c1ccc(C)cc1,T/C,"dose: 100.0 mg/kg/injection, schedule: Q01DX009 (ip), vehicle: Klucel (hydroxypropylcellulose) (HPC)",103 % of control
same,T/C,"dose: 200.0 mg/kg/injection, schedule: Q01DX009 (ip), vehicle: Klucel (hydroxypropylcellulose) (HPC)",95 % of control
